Measured values as given in US5612453A, “Selected peptides of the group-specific antigen (gag) of human immunodeficiency virus (HIV), the preparation and use thereof” (Chiron Behring GmbH & Co., priority 1990, dated 1997).

Assays:
Format in all cases: cell-based
[1] = tested on: HIV-1 virus strain HTLV-IIIB; assay: p24 detection by Western blot in HIV-infected cells after gag peptide treatment; settings: two weeks after infection, Western blot with anti-p24 MAbs
Description: (§1) Cells. Permanently growing T lymphocytes (Jurkat or H9 cells) were used for the in vitro experiments. The medium used was conventional RPMI 1640 with 10% FCS, 2% NaHCO3 (5% strength), 1% penicillin/streptavidin solution and 2 mg/l Polybrene. The experiments were carried out either in 96-well microtiter plates (Nunc) or in 24-well plates (Nunc).
(§2) Viruses. HIV-1 virus strain HTLV-IIIB and HIV-2 strain ROD were used.
In the first experiment, 50 μl of 1×10^6 jurkat cells/ml were pipetted into each well of 96-well plates, and each was infected with 50 μl (1000 TCID50) HTLV-IIIB. The gag peptide concentration was adjusted to 200 μg/ml or 40 μg/ml. After one week, 100 μl of supernatant were removed and any cells still present were removed by centrifugation. Then 80 μl of supernatant were placed on an uninfected jurkat cell culture. Viral antigen was detected in the infected cells by immunolabeling after a Western blot. For this, the cells remaining after the inhibition experiment were taken up in 2×SDS-PAGE sample buffer and fractionated in a 14% PAG. The fractionated proteins were then blotted onto a nitrocellulose membrane and incubated with an anti-p24 HIV-1 monoclonal antibody to detect viral proteins. […] Infectious HIV in the supernatant of the peptide-treated cells was analyzed by the reverse transcriptase assay. […]

[2] = tested on: HIV-1 virus strain HTLV-IIIB; assay: Inhibition of HIV-1 synthesis: infectious virus / reverse transcriptase activity in detector cell culture supernatant; settings: for inhibitory effect on HIV-1 synthesis (reverse transcriptase activity of detector culture supernatant): Experiment 3 (FIG. 3), 100 TCID50 HIV-1, jurkat cells, detector cultures incubated two weeks; for inhibitory effect on HIV-1 synthesis: Experiments 1 and 2, jurkat cells, 1000 or 100 TCID50 HTLV-IIIB, peptide 200 or 40 μg/ml
Description: These peptides were added in various concentrations (200-40 μg/ml) to freshly infected jurkat cells. Infection was carried out with 100-1000 TCID50. The infection was analyzed by microscopic assessment and investigation of the supernatant for the content of infectious HIV. For this purpose, the cell supernatant was added to non-infected jurkat cells. After incubation for two weeks, this detector cell culture was examined for HIV under the microscope and by reverse transcriptase assay.
Permanently growing T lymphocytes (Jurkat or H9 cells) were used for the in vitro experiments. The medium used was conventional RPMI 1640 with 10% FCS, 2% NaHCO3 (5% strength), 1% penicillin/streptavidin solution and 2 mg/l Polybrene. The experiments were carried out either in 96-well microtiter plates (Nunc) or in 24-well plates (Nunc).
HIV-1 virus strain HTLV-IIIB and HIV-2 strain ROD were used.
(§3) Reverse transcriptase assay. The microassay for detecting viral reverse transcriptase was carried out by the method of Gregersen et al. (Gregersen et al. (1988) Detection of human immunodeficiency virus and other retroviruses in cell culture supernatants by a reverse transcriptase microassay. J. Virol. Methods 19, 161-168). Cell culture supernatants were concentrated five-fold by PEG precipitation. Positive controls (VC) were supernatants of untreated infected cell cultures, and negative controls (NC) were cell culture supernatants from uninfected cells. The value measured for the NC was doubled and used as value for excluding negative cells.
In the first experiment, 50 μl of 1×10^6 jurkat cells/ml were pipetted into each well of 96-well plates, and each was infected with 50 μl (1000 TCID50) HTLV-IIIB. The gag peptide concentration was adjusted to 200 μg/ml or 40 μg/ml. After one week, 100 μl of supernatant were removed and any cells still present were removed by centrifugation. Then 80 μl of supernatant were placed on an uninfected jurkat cell culture. […] Infectious HIV in the supernatant of the peptide-treated cells was analyzed by the reverse transcriptase assay.
1000 TCID50 HIV-1 were employed for infecting the jurkat cells. Reverse transcriptase activity measured in cpm in the cell culture supernatant from the detector cell culture. The supernatant was concentrated five-fold by PEG precipitation. VC=virus control; NC=negative control. Twice the NC value was used to exclude negative cell cultures. To improve clarity, the RT values are reported in the figure in logarithmic presentation.
100 TCID50 HIV-1 were employed to infect the jurkat cells. Reverse transcriptase activity measured in cpm in the cell culture supernatant from the detector cell culture. The supernatant was concentrated five-fold by PEG precipitation. VC=virus control; NC=negative control.

[3] = tested on: HIV-2 strain ROD; assay: Inhibition of HIV-2 synthesis: reverse transcriptase activity in detector cell culture supernatant (Experiment 3); settings: Experiment 3 (FIG. 3); 100 TCID50 HIV-2, H9 cells
Description: as §1, §2, §3
H9 cells were infected with 100 TCID50 HIV-2 for this experiment. […]
100 TCID50 HIV-1 and HIV-2 were employed to infect the jurkat and H9 cells respectively. Reverse transcriptase activity measured in cpm in the cell culture supernatant from the detector cell culture. […]

Sequence	p24 Detection [1]	inhibitory effect on HIV-1 synthesis (reverse transcriptase activity of detector culture supernatant) [2]	inhibitory effect on HIV-1 synthesis [2]	inhibition of HIV-2 synthesis (reverse transcriptase activity of detector culture supernatant) [3]
NPGLLETSEGCROILGQLQPSLQT [Peptide 5]	(+)	strong inhibitory effect	exerted an inhibitory effect on HIV-1 synthesis	very clearly evident
WASRELERFAVNPGLLETSEGCRQ [Peptide 4, synthetic gag peptide from the p17 submembrane protein]	-	strong inhibitory effect	exerted an inhibitory effect on HIV-1 synthesis	very clearly evident
